Results on 24 compounds are retold here after PubChem BioAssay (NCI).

Test systems include A498 renal; CCRF-CEM leukemia; HOP-62 NSCLC; K-562 leukemia; LOX IMVI melanoma; OVCAR-5 ovarian; HOP-92 NSCLC; NCI-H226 lung; NCI-H522 lung.
Holding throughout (experiment): NCI anticancer screen, dose series, 48 h

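All cell lines were grown in 96-well plates and treated with compound for 48 hours. GI50 marks 50% less growth. TGI: total growth inhibition.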

Take `Cc1nn(-c2ccccc2)c2nc(N3CCOCC3)nnc12`: the TGI with A498 renal, with CCRF-CEM leukemia, in the assay on HOP-62 NSCLC, with K-562 leukemia, in the assay with LOX IMVI melanoma and with OVCAR-5 ovarian was above 100 µM in each case.

Regarding `N#Cc1nc(Nc2cccc3ccccc23)sc1N`, the TGI in the assay with HOP-62 NSCLC was above 100 µM; in the assay on HOP-92 NSCLC, 52.3 µM; in the assay on K-562 leukemia it was above 100 µM; with LOX IMVI melanoma, 33.4 µM; in the assay with NCI-H226 lung it was above 100 µM; in the assay on NCI-H522 lung, 46.4 µM. Moreover, the TGI with OVCAR-5 ovarian was above 100 µM.

On to `CCOc1ccccc1C=C1c2ccccc2C(=O)c2ccccc21`, for which the TGI is above 100 µM in the assay on A498 renal; 35.5 µM in the assay on CCRF-CEM leukemia; 36.3 µM in the assay on HOP-62 NSCLC; 72.9 µM with HOP-92 NSCLC; above 100 µM in the assay on K-562 leukemia; above 100 µM in the assay with LOX IMVI melanoma. Besides, the TGI with NCI-H522 lung was 6.57 µM; in the assay with OVCAR-5 ovarian, above 100 µM.

As to `COC(=O)c1cc2c(s1)C(=O)c1ccccc1-2`, the TGI with A498 renal, in the assay on CCRF-CEM leukemia, in the assay with HOP-62 NSCLC, with HOP-92 NSCLC, with K-562 leukemia and in the assay with LOX IMVI melanoma was above 100 µM in each case. Besides, the TGI in the assay on NCI-H226 lung, in the assay on NCI-H522 lung and in the assay with OVCAR-5 ovarian was above 100 µM each time.

Regarding `CC(C)=CC/C=C(/C)[C@H]1CC[C@]2(C)[C@@H]1CC[C@@H]1[C@@]3(C)CCCNC(C)(C)[C@@H]3CC[C@]12C`, the GI50 in the assay with A498 renal was 13.8 µM; in the assay with CCRF-CEM leukemia, 2.84 µM; with HOP-62 NSCLC, 1.9 µM; with HOP-92 NSCLC, 1.5 µM; in the assay on K-562 leukemia, 1.79 µM; in the assay with NCI-H226 lung, 3.75 µM. For the same compound, the GI50 in the assay with NCI-H522 lung was 1.98 µM; with OVCAR-5 ovarian, 3.86 µM. Besides, the TGI is 29.3 µM in the assay with A498 renal; 11.3 µM in the assay with CCRF-CEM leukemia; 3.9 µM in the assay with HOP-62 NSCLC; 3.58 µM with HOP-92 NSCLC; 5.3 µM in the assay on K-562 leukemia; 16.8 µM in the assay with NCI-H226 lung. Besides, the values for the TGI in the assay with NCI-H522 lung and with OVCAR-5 ovarian were 4.48 µM and 15.1 µM, respectively.

With `Cc1cc([N+](=O)[O-])ccc1Nc1cccc(Cl)c1C`, the TGI with A498 renal is 29 µM; with CCRF-CEM leukemia, 47.2 µM; in the assay on HOP-62 NSCLC it was 28 µM; in the assay with K-562 leukemia, 33.8 µM; with LOX IMVI melanoma, 33.9 µM; in the assay with NCI-H226 lung, 34.9 µM. In addition, the TGI turned out to be 31 µM in the assay with NCI-H522 lung and 28.8 µM with OVCAR-5 ovarian.

In the case of `CC1(C)COC(c2cccnc2/C=N/O)=N1`, the TGI with A498 renal, in the assay on CCRF-CEM leukemia, in the assay with HOP-62 NSCLC, in the assay on HOP-92 NSCLC, in the assay on K-562 leukemia and with LOX IMVI melanoma was above 100 µM in each case. In addition, the TGI with NCI-H226 lung, in the assay on NCI-H522 lung and in the assay with OVCAR-5 ovarian was above 100 µM throughout.

With `NNC(=S)N/N=C(\CC1OC(=O)c2ccccc21)c1ccccc1O` (configuration not stated), the TGI was 95.4 µM with A498 renal; above 100 µM in the assay on CCRF-CEM leukemia; above 100 µM in the assay with HOP-62 NSCLC; above 100 µM in the assay with HOP-92 NSCLC; above 100 µM with K-562 leukemia; 32.6 µM with LOX IMVI melanoma. The TGI is 95.4 µM in the assay on NCI-H226 lung, 83.8 µM in the assay with NCI-H522 lung and 33.9 µM in the assay with OVCAR-5 ovarian.

Consider `CN(C)c1ccc(C(C=C2c3ccccc3Sc3ccccc32)=C(C#N)C#N)cc1`, for which the TGI in the assay with A498 renal, with CCRF-CEM leukemia, in the assay with HOP-62 NSCLC, with K-562 leukemia, in the assay on LOX IMVI melanoma and with OVCAR-5 ovarian was above 100 µM throughout.

As for `CN(C)/C=N/c1nc2c(ncn2C2OC(CO)C(O)C2O)c(=O)[nH]1` (configuration not stated), the TGI in the assay with A498 renal, with HOP-62 NSCLC, in the assay with HOP-92 NSCLC, in the assay with K-562 leukemia, in the assay with NCI-H226 lung and with OVCAR-5 ovarian was above 100 µM throughout.

For `O=C(CCn1[nH]c(=O)c(Cl)c(Cl)c1=O)NO`, the TGI in the assay on A498 renal, in the assay with CCRF-CEM leukemia, with HOP-62 NSCLC, in the assay with K-562 leukemia, in the assay with LOX IMVI melanoma and with NCI-H226 lung was above 100 µM in each case. Moreover, the TGI with NCI-H522 lung and in the assay with OVCAR-5 ovarian was above 100 µM throughout.

As to `COC(=O)C1=C(O)c2cc(OC)c(OC)cc2C(c2ccc(OC)c(OC)c2)C1` (configuration not stated), the TGI in the assay on A498 renal was 98.2 µM; in the assay with CCRF-CEM leukemia, above 100 µM; in the assay on HOP-62 NSCLC, above 100 µM; in the assay on HOP-92 NSCLC, above 100 µM; in the assay on K-562 leukemia it was above 100 µM; in the assay on LOX IMVI melanoma it was above 100 µM. The TGI in the assay on NCI-H226 lung and in the assay on OVCAR-5 ovarian was above 100 µM throughout.

Regarding `COc1ccc(C(=O)C(c2ccc(OC)cc2)C2(O)C(=O)Nc3ccc([N+](=O)[O-])cc32)cc1` (configuration not stated), the TGI with A498 renal was 31.5 µM; in the assay on CCRF-CEM leukemia it was above 100 µM; in the assay on HOP-62 NSCLC, above 100 µM; with HOP-92 NSCLC, above 100 µM; with K-562 leukemia, above 100 µM; in the assay on NCI-H226 lung, above 100 µM. The TGI with NCI-H522 lung and with OVCAR-5 ovarian was above 100 µM each time.

Regarding `CC1=NNC(=O)C2CCC(=O)N12` (configuration not stated), the TGI with A498 renal, with CCRF-CEM leukemia, in the assay with HOP-62 NSCLC, with K-562 leukemia, in the assay with NCI-H226 lung and in the assay on NCI-H522 lung was above 100 µM in each case.

As to `CN(C)c1nc2ccccc2[nH]1`, the TGI in the assay on CCRF-CEM leukemia, with HOP-62 NSCLC, with HOP-92 NSCLC, in the assay with K-562 leukemia, in the assay with LOX IMVI melanoma and in the assay on NCI-H522 lung was above 100 µM in each case. The compound further returned a TGI with OVCAR-5 ovarian above 100 µM.

As for `Cc1cc(CC(O)c2ccc(Cl)c(Cl)c2)nc(=O)[nH]1` (configuration not stated), the TGI in the assay with A498 renal was above 100 µM; in the assay on CCRF-CEM leukemia, above 100 µM; in the assay on HOP-62 NSCLC, 86.5 µM; in the assay on HOP-92 NSCLC it was 49.5 µM; in the assay on K-562 leukemia, above 100 µM; in the assay on NCI-H226 lung, 92 µM. The values for the TGI in the assay with NCI-H522 lung and with OVCAR-5 ovarian were 69.9 µM and above 100 µM, respectively.

With `Cn1c2ccccc2c2c3c(c4c5cc(Br)ccc5n(C)c4c21)C(=O)N(O)C3=O`, the GI50 was 0.0323 µM in the assay with CCRF-CEM leukemia, 0.18 µM with HOP-92 NSCLC, 0.197 µM in the assay with K-562 leukemia and 0.167 µM in the assay on NCI-H522 lung. Further, the TGI in the assay on CCRF-CEM leukemia is 0.185 µM; with K-562 leukemia, above 100 µM; in the assay on NCI-H522 lung it was above 100 µM.

In the case of `CC1=C(C(=O)Nc2ccccc2)C(c2ccccc2)C(C(=O)Nc2ccccc2)=C(C)N1`, the TGI in the assay on A498 renal, in the assay on HOP-62 NSCLC, in the assay with HOP-92 NSCLC, in the assay with NCI-H226 lung, in the assay with NCI-H522 lung and in the assay with OVCAR-5 ovarian was above 100 µM each time.

`COc1ccc2c3c([nH]c2c1[N+](=O)[O-])C(C)=NCC3`: the TGI with A498 renal, in the assay on CCRF-CEM leukemia, with HOP-62 NSCLC, in the assay with K-562 leukemia, in the assay on LOX IMVI melanoma and in the assay with NCI-H226 lung was above 100 µM in each case. Besides, the TGI with NCI-H522 lung and with OVCAR-5 ovarian was above 100 µM throughout.

Consider `CCCN=C(N)NC#N`, for which the TGI in the assay on A498 renal, in the assay on HOP-62 NSCLC, in the assay with HOP-92 NSCLC, in the assay with K-562 leukemia, in the assay with NCI-H226 lung and in the assay on NCI-H522 lung was above 100 µM throughout. In addition, in the assay with OVCAR-5 ovarian, the TGI is above 100 µM.

As to `Cc1ccc(NC(=O)C(=O)C(C(=O)c2ccc3ccccc3c2)C2OC(=O)c3ccccc32)cc1C` (configuration not stated), the TGI with A498 renal was 31 µM; in the assay with CCRF-CEM leukemia, 51.3 µM; in the assay with HOP-62 NSCLC, 35.7 µM; in the assay with HOP-92 NSCLC, 40.6 µM; in the assay on K-562 leukemia, 59.7 µM; in the assay with LOX IMVI melanoma, 32.8 µM. Further, the TGI turned out to be 11 µM in the assay with NCI-H226 lung and 71.3 µM in the assay with OVCAR-5 ovarian.

Turning to `Cc1ccc(Cc2c(=O)[nH]nc3ccccc23)cc1`, the TGI in the assay on A498 renal, with CCRF-CEM leukemia, with HOP-62 NSCLC, in the assay on HOP-92 NSCLC, in the assay on K-562 leukemia and in the assay with LOX IMVI melanoma was above 100 µM throughout. For the same compound, the TGI in the assay with NCI-H226 lung and with OVCAR-5 ovarian was above 100 µM in each case.

As for `CC(C)(C)CC(C)(C)c1cc2c(O)c(c1)Cc1cc(C(C)(C)CC(C)(C)C)cc(c1O)Cc1cc(C(C)(C)CC(C)(C)C)cc(c1O)Cc1cc(C(C)(C)CC(C)(C)C)cc(c1O)C2`, the TGI with CCRF-CEM leukemia, in the assay with HOP-62 NSCLC, in the assay with HOP-92 NSCLC, in the assay on K-562 leukemia, in the assay with NCI-H522 lung and in the assay on OVCAR-5 ovarian was above 100 µM throughout.

`COc1cccc(/C=C/c2cc(OC)c(OC)c(OC)c2)c1`: the TGI in the assay with A498 renal, in the assay on CCRF-CEM leukemia, with HOP-62 NSCLC, with HOP-92 NSCLC, in the assay with K-562 leukemia and in the assay with NCI-H226 lung was above 100 µM throughout. Also, the TGI in the assay on NCI-H522 lung and in the assay on OVCAR-5 ovarian was above 100 µM each time.
